“Also recorded” adds a separate entry of the source. Where two headings read alike, the source gives them in different places. Marks after values point to notes of the source that are not given here.
What was measured:
[1] = Ligand protonation equilibria by potentiometric titration; assay type: physicochemical; details: 1.0 m kcl
[2] = Pd(II) complexation equilibria by UV spectrophotometry and potentiometry; details: for log KML: stability constant of the Pd(II) complex, 25°C in 1.0 M KCl
[3] = Acid-mediated dissociation (cold inertness) followed by 1H NMR; assay type: physicochemical; details: Pd(II) complex, 5 M DCl (HCl 5M), 90°C, up to five months, 0.05M
[4] = cited from earlier work
[5] = EDTA challenge (transchelation) of 109Pd-labelled complexes, radio-HPLC; details: pbs, 1000 eq edta, pH 7
[6] = pbs, 1000 eq edta, 24 h, pH 7
[7] = Table 5, stepwise protonation constant in log units, read-out: H2L + H^+ ⇄H3L
[8] = Table 5, stepwise protonation constant in log units, read-out: H3L + H^+ ⇄H4L
[9] = Table 5, stepwise protonation constant in log units, read-out: HL + H^+ ⇄H2L
[10] = Table 5, stepwise protonation constant in log units, read-out: L + H^+ ⇄HL
[11] = Table 6, overall constant in log units, read-out: L + H^+ ⇄HL
[12] = Table 5, complexation constant in log units, […], 1.0 M (K,H)Cl
[13] = Table 6, overall formation constant in log units, […], 1.0 M (K,H)Cl

Molecule	pKa [1, 7]	pKa [1, 8]	pKa [1, 9]	pKa [1, 10]	pKa [1, 11]	log KML [2]	Pd^2+ + L ⇄PdL [2, 12]	Pd^2+ + L ⇄PdL [2, 13]	Dissociation [3]	other results
c1ccc(CN2CCCNCCNCCCNCC2)cc1 [TE1Bn, reference compound]	2.21	2.89	9.39	11.3	11.3	> 43	> 43	>43		
C1CNCCNCCCNCCNC1.[Cl-].[Cl-].[Pd+2] [[Pd(cyclam)]^2+, Palladium(II) 1,4,8,11-tetraazacyclotetradecane dichloride, reference compound]									neither [Pd(cyclam)]^2+ nor [Pd(TE1PA)]^2+ present any significant dissociation; also recorded: HCl 5M, 90°C: Inert	log KML ([4]; Pd(II) cyclam complex, 25°C in 0.1 M NaClO4, Harrington et al. 2005, value estimated): log KML = 56,9; degraded at 24 h [5]: 13%
OCCN1CCCN(CCO)CCN(CCO)CCCN(CCO)CC1 [tetra(2-hydroxyethyl) cyclam]										log KML ([4]; Pd(II) complex, Hay et al. 1987): 18.32

More lines, main results first:

pKa [1, 7]	pKa [1, 8]	pKa [1, 9]	pKa [1, 10]	pKa [1, 11]	log KML [2]	Molecule	Pd^2+ + L ⇄PdL [2, 12]	Pd^2+ + L ⇄PdL [2, 13]	Dissociation [3]	other results
3.05	2.28	10.1	11.1	11.1		O=C(O)c1cccc(CN2CCCNCCNCCCNCC2)n1 [TE1PA, 6-((1,4,8,11-tetraazacyclotetradecan-1-yl)methyl)picolinate]				pKa ([1]; Table 5, stepwise protonation constant in log units, read-out: H4L + H^+ ⇄H5L): 1.69; PdHL + H^+ ⇄PdH2L ([2]; Table 5, stepwise protonation constant of the Pd(II) complex in log units, […], 1.0 M KCl): 1.8(1)
2.65	2.83	10.4	11.5	11.5	42.6	c1ccc(CN2CCCNCCNCCCNCC2)nc1 [TE1Py]	42.6(1)	42.6(1)		Pd^2+ + L + H^+ ⇄PdHL ([2]; Table 6, overall formation constant in log units, determined by UV spectrophotometry, pH 0-1.5, […], 1.0 M (K,H)Cl): 44.2(1) ^b
					log KML = 38.4	Palladium (II) 6-methylpicolinate-1,4,8,11-tetraazacyclotetradecane tetrachloropalladate [[Pd(TE1PA)]^2+]			neither [Pd(cyclam)]^2+ nor [Pd(TE1PA)]^2+ present any significant dissociation; also recorded: HCl, 5M, 90°C: Inert	demetallation [6]: 9% demetallation
